The target in this test is human A2A receptor (A2AR) (Homo sapiens, UniProt P29274). Briefly: Luciferase reporter assay (HEK293-A2AR-luc2p/CRE/Hygro cells, 3 nM CGS21680). Format: cell-based. To be noted: 3 nM CGS21680, 5 h incubation. The method, then: HEK293 cells were maintained in Dulbecco's modified Eagle's medium (DMEM, Gibco) supplemented with 10% fetal bovine serum (FBS, Thermo Scientific), 100 units/mL penicillin (Gibco), and 0.1 mg/mL streptomycin (Gibco) in a humidified 37° C. environment with 5% C02. Plasmid encoding wild-type human A2A receptor (A2AR) (in pcDNA3.1) was synthesized by Genscript (Nanjing, China). Transfection of the plasmids was performed in 6-well plates with 4×10^5 cells using Lipofectamin 2000 (ThermoFisher Scientific) according to the instruction of the manufacturer. Cell clones that stably express A2AR were established and maintained in the same complete medium as the HEK293 cells in addition of G-418 (Gibico). Expression level of A2AR in each single cell clone was determined using immunoblotting and FACS method. HEK293-A2AR stable cells were then transfected with pGL4.29[luc2P/CRE/Hygro] (Promega) luciferase reporter plasmid for establishing the HEK293-A2AR-luc2p/CRE/Hygro stable cell line.
HEK293-A2AR-luc2p/CRE/Hygro cells were seeded at a density of 5,000 cells/well in DMEM with 1% FBS and 1 U/mL adenosine deaminase (ADA) (Sigma). After 18 h, the cells were treated with 3 nM CGS21680 plus a series dilution of A2AR antagonist, the compounds disclosed herein at the concentration of 0.1˜10000 nM, prepared in DMEM with 1% FBS. After 5 h incubation, the luciferase activity in cells were measured using the Bright-Glo Luciferase Assay System (Promega) according to manufacturer's instructions. The luminescence signal was measured using a PHERAstar FS plate reader (BMG Labtech). […] Maximal luminescence intensity was determined in the presence of 3 nM CGS21680 and was set as 100%. The IC50 value was calculated from a dose dependent inhibition curve across the range of compound concentrations.
In general terms: In a reporter assay the amount or activity of a reporter protein is the signal.

Each structure is given as a SMILES string.

The IC50 is the concentration needed to halve the response being measured.

human A2A receptor (A2AR), sequence (P29274 whole entry): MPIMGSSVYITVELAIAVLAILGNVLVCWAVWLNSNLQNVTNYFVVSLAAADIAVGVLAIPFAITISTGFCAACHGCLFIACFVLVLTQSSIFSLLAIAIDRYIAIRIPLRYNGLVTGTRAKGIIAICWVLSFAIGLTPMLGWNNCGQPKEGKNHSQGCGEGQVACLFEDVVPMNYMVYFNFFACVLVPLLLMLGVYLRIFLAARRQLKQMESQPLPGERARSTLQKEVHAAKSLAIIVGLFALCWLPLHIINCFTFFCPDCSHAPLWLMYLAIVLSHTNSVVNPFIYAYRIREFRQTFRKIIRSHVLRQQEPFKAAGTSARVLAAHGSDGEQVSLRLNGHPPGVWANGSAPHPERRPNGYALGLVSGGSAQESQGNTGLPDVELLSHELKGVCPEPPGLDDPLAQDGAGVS

The compound `COCCOCCOc1ccc(N2CCN(C(=O)C(C3CC3)n3cc4c(nc(N)n5nc(-c6ccco6)nc45)n3)CC2)cc1` (stereo not drawn) [Compound C22, 2-(5-amino-2-(furan-2-yl)-8H-pyrazolo[4,3-e][1,2,4]triazolo[1,5-c]pyrimidin-8-yl)-2-cyclopropyl-1-(4-(4-(2-(2-methoxyethoxy)ethoxy)phenyl)piperazin-1-yl)ethan-1-one] yielded an IC50 of 12.8 nM.

For the compound `Nc1nc2c(cnn2C(C(=O)N2CCc3cc(F)ccc3C2)c2ccccc2)c2nc(-c3ccco3)nn12` (single isomer, unassigned) [Compound B7b], it took 0.5 nM to reach half-maximal inhibition (IC50).

As for `CCCC(C(=O)N1CCN(c2ccc(F)cc2F)CC1)n1ncc2c1nc(N)n1nc(-c3ccco3)nc21` (stereo not drawn) [Compound A20, 2-(5-amino-2-(furan-2-yl)-7H-pyrazolo[4,3-e][1,2,4]triazolo[1,5-c]pyrimidin-7-yl)-1-(4-(2,4-difluorophenyl)piperazin-1-yl)pentan-1-one], the IC50 came out at 4.3 nM.

Compound `CCCC(C(=O)N1CCN(c2ccc(OCCN(C)C)cc2)CC1)n1ncc2c1nc(N)n1nc(-c3ccco3)nc21` (single isomer, unassigned) [Compound A39a] yielded an IC50 of 127 nM.

For `CCC(C(=O)N1CCN(c2ccc(OCCOCCOC)cc2)CC1)n1ncc2c1nc(N)n1nc(-c3ccco3)nc21` (stereo not drawn) [Compound A8, 2-(5-amino-2-(furan-2-yl)-7H-pyrazolo[4,3-e][1,2,4]triazolo[1,5-c]pyrimidin-7-yl)-1-(4-(4-(2-(2-methoxyethoxy)ethoxy)phenyl)piperazin-1-yl)butan-1-one], half-maximal inhibition (IC50) required 41.5 nM.

In turn, `CN(C)CCOc1ccc(N2CCN(C(=O)C(C)(c3ccccc3)n3ncc4c3nc(N)n3nc(-c5ccco5)nc43)CC2)cc1` (single isomer, unassigned) [Compound A71a] yielded an IC50 of 10.9 nM.

In turn, `CC(C)CC(C(=O)N1CCN(c2ccc(F)cc2F)CC1)n1ncc2c1nc(N)n1nc(-c3ccco3)nc21` (single isomer, unassigned) [Compound A22a] displayed an IC50 of 246 nM.

`COCCOc1ccc(N2CCN(C(=O)C(C)(c3ccccc3)n3ncc4c3nc(N)n3nc(-c5ccco5)nc43)CC2)c(F)c1` (stereo not drawn) [Compound A64, 2-(5-amino-2-(furan-2-yl)-7H-pyrazolo[4,3-e][1,2,4]triazolo[1,5-c]pyrimidin-7-yl)-1-(4-(2-fluoro-4-(2-methoxyethoxy)phenyl)piperazin-1-yl)-2-phenylpropan-1-one] yielded an IC50 of 4.8 nM.

For the compound `CCCC(C(=O)N1CCN(c2ccc(OCCOC)cc2)CC1)n1cc2c(nc(N)n3nc(-c4ccco4)nc23)n1` (single isomer, unassigned) [Compound C5a], the IC50 was determined as 55 nM.

Compound `CCCC(C(=O)N1CCN(c2ccc(OCCOCCOC)cc2)CC1)n1ncc2c1nc(N)n1nc(-c3ccco3)nc21` (stereo not drawn) [Compound A6, 2-(5-amino-2-(furan-2-yl)-7H-pyrazolo[4,3-e][1,2,4]triazolo[1,5-c]pyrimidin-7-yl)-1-(4-(4-(2-(2-methoxyethoxy)ethoxy)phenyl)piperazin-1-yl)pentan-1-one] showed an IC50 of 9.5 nM.

`CC(C(=O)N1CCN(c2cccc(C(=O)NC3CCCCC3)c2)CC1)(c1ccccc1)n1ncc2c1nc(N)n1nc(-c3ccco3)nc21` (stereo not drawn) [Compound A90, 2-(5-amino-2-(furan-2-yl)-7H-pyrazolo[4,3-e][1,2,4]triazolo[1,5-c]pyrimidin-7-yl)-2-phenyl-1-(4-(3-(cyclohexanaminocarbonyl)phenyl)piperazin-1-yl)propan-1-one] yielded an IC50 of 14.1 nM. The IC50 values of the last two compounds are within 1.5-fold of each other.

As for `COCCOc1ccc(N2CCN(C(=O)C(C3CCN(C)CC3)n3ncc4c3nc(N)n3nc(-c5ccco5)nc43)CC2)cc1` (stereo not drawn) [Compound A60, 2-(5-amino-2-(furan-2-yl)-7H-pyrazolo[4,3-e][1,2,4]triazolo[1,5-c]pyrimidin-7-yl)-1-(4-(4-(2-methoxyethoxy)phenyl)piperazin-1-yl)-2-(1-methylpiperidin-4-yl)ethan-1-one], the IC50 was more than 10000 nM.

Source of the values: patent publication US20210300936A1, “PYRAZOLOTRIAZOLOPYRIMIDINE DERIVATIVES AS A2A RECEPTOR ANTAGONIST” (BEIGENE, LTD., priority 2018, published 2021).
